# Measured values: the supplement of paper PMC12317010
# Where a name gives a salt, the structure may show the parent alone.
# Assay: collision cross section in nitrogen (drift tube, single-field); higher = larger gas-phase ion size
# [1] = ion type: [M+Na], ion source: ESI, ion mode: Positive
# [2] = ion type: [M-H], ion source: ESI, ion mode: Negative
# [3] = ion type: [M+H], ion source: APCI, ion mode: Positive
# [4] = ion type: [M+H], ion source: ESI, ion mode: Positive
# 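Also: chemical standards at 10 µM analysed by drift tube IMS-QTOF MS in about 3.95 torr nitrogen, mean of duplicate injections differing ≤1%, mass error below 10 ppm.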
collision cross section in nitrogen [1],collision cross section in nitrogen [2],collision cross section in nitrogen [3],collision cross section in nitrogen [4],SMILES,further results
–,–,117.1 Å²,117.9 Å²,Cn1sccc1=O [2-Methyl-3(2H)-isothiazolone],–
–,–,–,183.6 Å²,Cc1nc(-c2ccc(OCC(C)C)c(C#N)c2)sc1C(=O)O [Febuxostat],–
–,146.9 Å²,–,–,CCCCCc1ccc(O)cc1 [4-Pentylphenol],–
–,148.4 Å²,–,–,CCC(C)OC(=O)c1ccc(O)cc1 (stereo not given) [sec-Butylparaben],–
172.2 Å²,–,155.3 Å²,155.2 Å²,CCNc1nc(NC(C)CC)nc(OC)n1 (stereo not given) [Secbumeton],–
–,189.8 Å²,–,–,CCCCCCCCCCCCCCCCCCOS(=O)(=O)O [Octadecyl sulfate sodium salt],–
217.8 Å²,208.9 Å²,–,209.1 Å²,Cc1c(C(=O)O)c(O)cc2c1C(=O)c1c(O)c([C@@H]3O[C@H](CO)[C@@H](O)[C@H](O)[C@H]3O)c(O)c(O)c1C2=O [Carminic acid],–
–,136.8 Å²,134.2 Å²,–,"Cn1c(=O)[nH]c2ncn(C)c2c1=O [1,7-Dimethylxanthine]",–
193.2 Å²,190.9 Å²,–,193.1 Å²,COCc1nnc(-c2ccc[n+]([O-])c2)n1-c1c(Cl)c(Cl)cc2[nH]c(=O)c(=O)[nH]c12,–
–,142.1 Å²,–,–,N#Cc1ccc(C(=O)O)cc1 [4-Cyanobenzoic acid],–
–,168.1 Å²,–,–,O=C1Nc2ccc(Cl)cc2[C@@](C#CC2CC2)(C(F)(F)F)O1 [Efavirenz],–
146.5 Å²,–,–,–,"COC(=O)CCSCCC(=O)OC [Dimethyl 3,3'-thiodipropionate]",–
–,176.4 Å²,–,–,C=C1C[C@]23C[C@@]1(O)CC[C@H]2[C@@]12C=C[C@H](O)[C@@](C)(C(=O)O1)[C@H]2[C@@H]3C(=O)O [Gibberellic acid],–
187.8 Å²,–,–,169.5 Å²,"CCOC(=O)C1=NOC(c2ccccc2)(c2ccccc2)C1 [Ethyl 5,5-diphenyl-2-isoxazoline-3-carboxylate]",–
233.5 Å²,231.1 Å²,–,–,CC[C@@H]1C[C@H](N(Cc2cc(C(F)(F)F)cc(C(F)(F)F)c2)C(C)=O)c2cc(C(F)(F)F)ccc2N1C(=O)OC(C)C,–
170.7 Å²,157.9 Å²,155.5 Å²,155 Å²,Nc1ccc(S(=O)(=O)c2ccc(N)cc2)cc1 [Dapsone],–

# More lines, now with the values behind:
SMILES,collision cross section in nitrogen [1],collision cross section in nitrogen [2],collision cross section in nitrogen [3],collision cross section in nitrogen [4],further results
"CC(C)(C)c1cc(CCC(=O)NN)cc(C(C)(C)C)c1O [3-[3,5-DI(tert-butyl)-4-hydroxyphenyl]propanohydrazide]",179.3 Å²,174.5 Å²,–,–,–
CNc1cnn(-c2cccc(C(F)(F)F)c2)c(=O)c1Cl [Norflurazon],171.9 Å²,160.9 Å²,162.7 Å²,162.4 Å²,–
"Cc1cc(C)c(C(=O)P(=O)(c2ccccc2)c2ccccc2)c(C)c1 [Diphenyl(2,4,6-trimethylbenzoyl)phosphine oxide]",191.1 Å²,–,–,–,–
CCC(C)N(C)C(=O)c1cc2ccccc2c(-c2ccccc2Cl)n1 (stereo not given),192.8 Å²,–,186.6 Å²,185.9 Å²,–
O=c1c(O)c(-c2ccc(O)cc2)oc2cc(O)cc(O)c12 [Kaempferol],–,162.2 Å²,163.2 Å²,162.8 Å²,–
CNC(=O)ON=CC(C)(C)SC [Aldicarb],147.5 Å²,–,–,–,–
C=CCOC(=O)c1ccc(C(=O)OCC=C)c(C(=O)OCC=C)c1 [Triallyl trimellitate],189.3 Å²,–,–,–,–
CSC1=N[C@@](C)(c2ccccc2)C(=O)N1Nc1ccccc1 [Fenamidone],–,174.6 Å²,172.6 Å²,172.7 Å²,–
Cc1cccc(C)c1NC(=O)CN1CCCC1=O [Nefiracetam],167.3 Å²,–,–,–,–
O=C(C1CCCCC1)N1CC(=O)N2CCc3ccccc3C2C1 (stereo not given) [Praziquantel],185.4 Å²,–,178.5 Å²,178.3 Å²,–
CC(=O)Nc1c(I)c(NC(C)=O)c(I)c(C(=O)O)c1I [Diatrizoic acid],183.6 Å²,–,–,179.4 Å²,–
C(=CNc1ccccc1)C=Nc1ccccc1 [N-(3-Anilino-2-propenylidene)aniline monohydrochloride],–,158.6 Å²,–,159.3 Å²,–
"Cc1ccc(N)cc1N [2,4-Diaminotoluene]",–,–,–,122.3 Å²,–
N#CC(CCc1ccc(Cl)cc1)(Cn1cncn1)c1ccccc1 (stereo not given),–,–,183.9 Å²,183.1 Å²,–
COc1ccc(C(O)(c2cncnc2)C2CC2)cc1 (stereo not given) [Ancymidol],–,–,164.3 Å²,164.2 Å²,–
"CC(C)Nc1nc(Cl)nc(NC(C)C)n1 [2,4-Bis(isopropylamino)-6-chloro-1,3,5-triazine]",–,–,154.9 Å²,155.3 Å²,–
C[C@]12CCC(=O)C(O)=C1CC[C@@H]1[C@@H]2CC[C@]2(C)C(=O)CC[C@@H]12 [4-Hydroxyandrostenedione],–,180 Å²,–,–,–
"Oc1cc(Cl)ccc1Cl [2,5-Dichlorophenol]",–,123.3 Å²,–,–,–
CN1[C@@H]2C[C@@H](OC(=O)[C@H](CO)c3ccccc3)C[C@H]1[C@@H]1O[C@@H]12 [Scopolamine hydrobromide],–,–,170.8 Å²,171.7 Å²,–
Oc1cccnc1 [3-Pyridinol],–,114.6 Å²,–,117.3 Å²,–
Cc1nccn1-c1ccc(Sc2cccc(C3(C(N)=O)CCOCC3)c2)cc1,188.1 Å²,–,196.7 Å²,196.8 Å²,–
NC(=O)c1ccccc1O [Salicylamide],–,122.2 Å²,–,–,–
C=C(C)C(=O)NCCC[N+](C)(C)C,–,–,–,–,"collision cross section in nitrogen (ion source: ESI, ion mode: Positive, ion type: [M]+ (permanent cation)): 143.3 Å²"
OCCOCCOCCO [Triethylene glycol],131.5 Å²,–,–,–,–
"CCCCCCCCCCCCCN1CC(C)OC(C)C1 (stereo not given) [2,6-Dimethyl-4-tridecylmorpholine]",–,–,–,183.5 Å²,–
Oc1ccc(Cc2ccc(O)cc2)cc1 [Bis(4-hydroxyphenyl)methane],–,153.6 Å²,–,–,–
"Cc1cc(C(C)(C)c2cc(C)c(O)c(C)c2)cc(C)c1O [4,4'-Propane-2,2-diylbis(2,6-dimethylphenol)]",–,182.9 Å²,–,–,–
O=C(O)c1cccc(N(Cc2cccnc2)c2ccc(OC(F)F)c(OC(F)F)c2)c1,205.9 Å²,202.6 Å²,201.3 Å²,200.4 Å²,–
Cc1ccc2nc(-c3ccc(N)cc3)sc2c1 [Dehydrothio-4-toluidine],–,155.8 Å²,153.9 Å²,153.9 Å²,"collision cross section in nitrogen (ion type: [M+], ion source: APCI, ion mode: Positive): 153.5 Å²"
